Results reported in patent US10903496B2, “Rigid naphthalenediimide triangle structures” (Northwestern University, priority 2015, dated 2021).
In brackets after ≈: the same amount, converted by molar mass. Read-outs that look alike come from different tables or passages of the source.

Legend:
[1] = Thermal gravimetric analysis (thermal stability); type: physicochemical
Experimental: Thermal stabilities were analyzed using a PerkinElmer Pyris Diamond TG/DTA analyzer. The temperature was increased from room temperature to 600° C. at a heating rate of 10° C. min^−1 under N2 atmosphere. […] The greater thermal stability of (−)-NDI-Δ is attributed to its higher molecular weight and more rigid structure compared to NDI-Ref.

[2] = Solubility in non-aqueous electrolyte solvents; type: physicochemical; details: for solubility in non-aqueous electrolyte solvents (in words): neutral state

thermal stability: temperature up to which stable / at which decomposition starts ([1]; TGA, room temperature to 600° C. at 10° C. min^−1 under N2, one-step decomposition) [°C] | solubility in the electrolyte solvents ([2]; electrolyte solvents) [µg/mL] | solubility in non-aqueous electrolyte solvents (in words) [2] | thermal stability: temperature up to which stable / at which decomposition starts [1] [°C] | SMILES
250 | ~100 (≈ 232 µM) | considerably more soluble |  | O=C1c2ccc3c4c(ccc(c24)C(=O)N1C1CCCCC1)C(=O)N(C1CCCCC1)C3=O [NDI-Ref]
 |  | only sparingly soluble | 400 | O=C1c2ccc3c4c5ccc(c24)C(=O)N1C1CCCC[C@H]1N1C(=O)c2ccc4c6c(ccc(c26)C1=O)C(=O)N(C4=O)C1CCCC[C@H]1N1C(=O)c2ccc4c6c(ccc(c26)C1=O)C(=O)N(C4=O)C1CCCC[C@H]1N(C3=O)C5=O (single isomer, unassigned; (-)) [(−)-NDI-Δ]
 |  | only sparingly soluble |  | O=C1c2ccc3c4c5ccc(c24)C(=O)N1C1CCCC[C@@H]1N1C(=O)c2ccc4c6c(ccc(c26)C1=O)C(=O)N(C4=O)[C@H]1CCCC[C@@H]1N1C(=O)c2ccc4c6c(ccc(c26)C1=O)C(=O)N(C4=O)C1CCCC[C@@H]1N(C3=O)C5=O (single isomer, unassigned; (+)) [(+)-NDI-Δ]
